Measurements reported in patent publication US20100074975A1, “Pharmaceutical composition for the prevention and treatment of liver disease comprising a lonicera caerulea L. Var. Edulis extract” (priority 2005, published 2010).

Key:
HepG2 cells [1] = conditions: 48 hrs
Description: HepG2 cells were seeded in a 96-well plate at a density of 1×10^4 cells per well and incubated in a culture medium supplemented with 10% FBS for 16 hrs. After the 96-well plate was washed with physiological saline, ethyl alcohol, which was diluted in a culture medium in amounts of 0, 0.5, 1.0, 1.5 and 2.0% (v/v), was added to each well in which HepG2 cells were cultured. After incubation for 48 hrs, the cell number in each well was measured using a SRB method.
The culture medium was removed, and the 96-well plate was washed with physiological saline. The cells in each well were then fixed with 70% acetone for 20 min. The fixed cells were dried, stained with an SRB solution for 30 min, and washed with a 1% acetic acid solution five times to eliminate unbound SRB. After the cells were dried again, 10 mM Tris was added to the cells to dissolve cellular proteins and unbound SRB, and absorbance was measured at 562 nm using a spectrophotometer. The results were expressed as a percentage by comparing the absorbance of each well treated with ethyl alcohol with that of a control well not treated with ethyl alcohol (FIG. 2).

HepG2 cells [2] = assay: Restoration of growth of cells whose growth is suppressed by ethyl alcohol (SRB method); type: cell-based, human; conditions: HepG2, 1.5% ethyl alcohol for 24 hrs
Description: After the 96-well plate was washed with physiological saline, ethyl alcohol, which was diluted in culture medium in 1.5% (v/v), was added to each well in which HepG2 cells were cultured. Cell damage was induced using ethyl alcohol for 24 hrs. Thereafter, the culture medium containing ethyl alcohol was removed, and the extract from L. caerulea fruits, which was diluted in culture medium in amounts of 0, 0.125, 0.25, 0.5 and 1 mg/ml, was added to each well. […] Cells in each well were then fixed with 70% acetone for 20 min. […] The absorbance of a well treated with ethyl alcohol alone and the absorbance of each well treated with alcohol plus the extract from L. caerulea fruits were compared with that of a control well which was not treated with ethyl alcohol or with the extract from L. caerulea fruits (FIG. 3).
The reduced absorbance increased in a manner that was dependent on the concentrations of the extract from L. caerulea fruits when the extract was administered at up to 0.5 mg/ml to the well treated with ethyl alcohol.
Thus, the degree of restoration of ethyl alcohol-induced cell growth damage by administration of the extract from L. caerulea fruits was calculated according to Equation 1, and the results are given in Table 1, below. […]

CCO [ethyl alcohol]
effect on cell number (HepG2 cells [1]; HepG2, ethyl alcohol at concentrations of 1.5% or higher): reduced cell number
effect on cell growth (HepG2 cells [1]; HepG2, ethyl alcohol at concentrations of up to 1% (v/v)): stimulate cell growth
absorbance reduced in comparison with the well not treated with ethyl alcohol (HepG2 cells [2]): 22%
